From article PMC6349869, “The palladacycle complex AJ-5 induces apoptotic cell death while reducing autophagic flux in rhabdomyosarcoma cells” (Cell Death Discovery, 2019)

Assays:
Format in all cases: cell-based, human
SW982 cells = test: MTT cell viability assay, SW982 synovial sarcoma; settings: 48 h
Method: RH30 human aRMS cells (kindly provided by Associate Professor Judith Davie, Southern Illinois University), AX-OH-1 human aRMS and FL-OH-1 human eRMS cells (kindly provided by Professor Stefan Bath, University of Cape Town) were cultured in Roswell Park Memorial Institute Medium (RPMI)-1640 (Sigma Aldrich, Missouri, USA). […] Cell morphology was monitored using an Olympus CKX41 inverted microscope (MSAC Ltd, UK) and imaged with an EVOS™ XL AMEX1000 Core Imaging System (Thermo Fisher Scientific, Massachusetts, USA).
Cells were seeded in 96-well plates and treated the next day with a range of AJ-5 concentrations (0.1–1.0 μM) or vehicle ([…]) for 48 h. Cell viability was measured using the 3-(4,5-dimethylthiazol-2-yl)-2,5-diphenyl-trazolium bromide (MTT) assay (11465007001; Sigma Aldrich) according to the manufacturer’s instructions. Mean cell viability was calculated as a percentage of the mean vehicle control. At least three independent experiments in quadruplicate were performed from which the half maximal inhibitory concentration (IC50) was determined using GraphPad Prism version 6.0 (GraphPad Software, California, USA). The selectivity index (SI) was determined by dividing the IC50 of a normal cell line by the IC50 of a cancer cell line.

RH30 and RD cells = test: Annexin V-FITC/PI assay; settings: IC50
Method: Cells were seeded, trypsinized, washed and counted as described for cell cycle analysis. The FITC Annexin V/Dead Cell Apoptosis kit (V13242; Thermo Fisher Scientific) was used according to the manufacturer's instructions. A negative control of unstained cells and positive controls of cells treated with 3% formaldehyde for 30 min on ice and stained with either PI or Annexin V were used to gate the flow cytometer for viable, early apoptotic, late apoptotic, and necrotic cell populations. Samples were subjected to FACS analyses as described for cell cycle analysis. Data were obtained and analysed using CellQuest Pro version 5.2.1. software.

[1] = system: caspase-3/7, caspase-8, caspase-9, PARP in RH30 and RD cells; test: Caspase-Glo assays and western blots of apoptosis markers
Method: Cells were lysed at 4 °C in whole-cell lysis buffer (0.125 M Tris-HCl pH 6.8, 4% SDS, 0.2% glycerol, 0.1% β-mercaptoethanol and a pinch of bromophenol blue) and boiled for 10 min. Proteins were resolved by SDS-PAGE (6–15% gels) and transferred to Hybond ECL membranes (Amersham, UK). The membranes were incubated with primary antibodies: rabbit polyclonal antibodies to phospho-histone H2A.X (Ser139) (#2577), phospho-chk2 (Thr68) (#221), phospho-p38 MAPK (Thr180/Tyr182) (#9211), cleaved caspase-3 (Asp175) (#9661), PARP (#9542), caspase-9 (#9502), LC3B (#2775), p38 MAPK (#9212), rabbit monoclonal antibody to cleaved caspase-7 (Asp198) (D6H1) (#8438), mouse monoclonal antibodies to phospho-ATM (Ser1981) (D6H9) (#5883), Cyclin B1 (V152) (#4135), Caspase-8 (1C12) (#9746), SQSTM1/p62 (D5L7G) (#88588) from Cell Signaling Technology (Massachusetts, USA); mouse monoclonal antibody to p53 (DO-1) (sc-126), rabbit polyclonal antibodies to p21 (C-19) (sc-397), cyclin A (H-432) (sc-751), cyclin B1 (H-433)(sc-752), PARP-1 (H-250) (sc-7150) from Santa Cruz Biotechnology (Texas, USA); rabbit polyclonal antibody to p38 MAP kinase (M0800) from Sigma Aldrich. After primary antibody incubation, membranes were incubated with goat anti-rabbit or goat anti-mouse HRP-conjugated secondary antibodies (Bio-Rad Laboratories, California, USA). Antibody reactive proteins were visualized by enhanced chemiluminescence using SuperSignal West Pico Chemiluminescent Substrate Kit (Thermo Fisher Scientific) or WesternBright ECL HRP Substrate Kit (Advansta, California, USA). Densitometry readings were obtained using ImageJ v1.50i[58] and protein expression levels were represented as a ratio of protein of interest/p38 loading control normalized to the vehicletreated control sample where appropriate. All blots are representative of at least two independent repeats.
Cells were seeded and treated for 24 h with IC50 AJ-5, vehicle or 0.5 µM (IC50) doxorubicin which was included and as a positive control. […]

RD cells = test: Autophagic flux by western blotting (p62; LC3II with bafilomycin A1), RD
Method: AJ-5, synthesized as previously described, was dissolved in dimethyl sulfoxide (DMSO) (D8418; Sigma Aldrich) to give a 5 mM AJ-5 stock which was stored at room temperature (RT) and used within 5 days. AJ-5 was diluted in cell culture medium to achieve the desired final concentration and a vehicle control (DMSO) of the same concentration was prepared simultaneously. Cells were treated at a confluency of 60%. For western blot experiments to determine autophagy flux, cells were treated with 200 nM bafilomycin A1 (B1793; Sigma Aldrich) for 2 h post AJ-5 treatment. Doxorubicin (z/26/0167; Teva Pharmaceutical Industries Ltd, Israel) was used as a positive control in Caspase-Glo experiments at a concentration of 0.5 µM.
Cells were lysed at 4 °C in whole-cell lysis buffer (0.125 M Tris-HCl pH 6.8, 4% SDS, 0.2% glycerol, 0.1% β-mercaptoethanol and a pinch of bromophenol blue) and boiled for 10 min. Proteins were resolved by SDS-PAGE (6–15% gels) and transferred to Hybond ECL membranes (Amersham, UK). […] Densitometry readings were obtained using ImageJ v1.50i[58] and protein expression levels were represented as a ratio of protein of interest/p38 loading control normalized to the vehicletreated control sample where appropriate. […]

## CC(C)c1cccc(C(C)C)c1[N+]1=Cc2cccc[c]2[Pd-2]1([Cl])[P+](CC[P+](c1ccccc1)(c1ccccc1)[Pd-2]1([Cl])[c]2ccccc2C=[N+]1c1c(C(C)C)cccc1C(C)C)(c1ccccc1)c1ccccc1 (stereo not shown) [AJ-5]
SW982 cells
  IC50: < 300 nM
RH30 and RD cells
  Cell death (Annexin V-FITC/PI): induces apoptotic and necrotic cell death
[1]; RD cells, 24 h, IC50 AJ-5 vs 0.5 µM doxorubicin
  Activation of caspases-8 and -9 compared with IC50 doxorubicin: more robustly activated
[1]; RH30 and RD
  Active (cleaved) caspases-3/7 and cleaved PARP: increased levels
[1]; RH30 and RD, western blotting and Caspase-Glo
  Cleaved caspase-8 and caspase-9: increased levels and activity
RD cells; 0.1 µM or IC50, 24 and 48 h
  Autophagic flux judged by p62 levels: increases autophagic flux
RD cells; IC50 24 h then 200 nM bafilomycin A1 2 h
  LC3II in the presence of bafilomycin A1, compared with vehicle: negligible change in LC3II
